Measurements: US6303630A, “Diarylsulfone non-nucleoside reverse transcriptase inhibitors of human immunodeficiency virus” (University of the Sciences in Philadelphia, priority 2000, dated 2001)

Tests used:
[1] = system: HIV-1; conditions: Artico et al. 1995; cited from earlier work
[2] = system: HIV-1; conditions: in vitro, McMahon et al. 1993; cited from earlier work
[3] = system: HIV-1 reverse transcriptase; conditions: McMahon et al. 1993; cited from earlier work
[4] = system: T4 lymphocytes (CEM cell line); test: Cell growth / toxicity control in uninfected T4 lymphocytes (CEM), XTT-formazan; type: cell-based; conditions: Homo sapiens, CCRF-CEM
Summary of the method: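 Toxicity control: compound, first dissolved in DMSO and serially diluted half-log10 to a final 1:200 dilution, incubated 6 days at 37° and 5% CO2 with CEM cells lacking HIV-1. Viable cells measured spectrophotometrically via XTT-derived formazan and checked microscopically.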

[5] = system: HIV-1; test: NCI in vitro anti-HIV drug screen: XTT-formazan assay, protection of T4 lymphocytes (CEM) from HIV-1 cytopathic effects; type: cell-based, human immunodeficiency virus (HIV-1)
Summary of the method: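 Protection from HIV-1 cytopathic killing was read spectrophotometrically via XTT formazan from viable cells after 6-day culture (37°, 5% CO2) of infected CEM cells with compound in half-log10 dilutions; drug-treated uninfected cells served as toxicity controls, AZT run alongside.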

Q: With `CCOC(=O)c1cccn1S(=O)(=O)c1ccccc1[N+](=O)[O-]` as the compound, how does the anti-HIV-1 efficacy [1] read?
A: Its anti-HIV-1 efficacy is “the most efficacy”.

Q: Which “protecting human cells in culture from HIV-1 cytopathic effects / preventing HIV-1 replication” value [2] does the source give for `O=[N+]([O-])c1ccccc1S(=O)(=O)c1ccccc1` [2-nitrophenyl phenylsulfone] here?
A: Its value is “high efficacy”.

Q: What about the “inhibition of HIV-1 replication via inhibition of HIV-1 reverse transcriptase” value [3] of the same compound?
A: Its value is “inhibition of HIV-1 replication via inhibition of HIV-1 reverse transcriptase”.

Q: For `CNc1ccccc1S(=O)(=O)c1ccc(Cl)cc1OC` [Compound 86, 2-(4-chloro-2-methoxyphenylsulfonyl)-N-methylaniline], which IC50 ([4]; 144 h, uninfected CEM cells, 6 days, XTT, approximate values, read-out: IC50 (50% inhibitory concentration for cell growth)) is on record?
A: The IC50 was over 200 µM.

Q: What about the activity at 200 µM ([4]; dose 2.00 × 10^-4 Molar, read-out: Percent of Control, Uninfected) of the same compound?
A: The activity at 200 µM was 83.9%.

Q: What about the activity at 20 µM ([4]; dose 2.00 × 10^-5 Molar, read-out: Percent of Control, Uninfected) of the same compound?
A: Its activity at 20 µM is 88.3%.

Q: And the activity at 2 µM ([4]; dose 2.00 × 10^-6 Molar, read-out: Percent of Control, Uninfected)?
A: The activity at 2 µM was 96.5%.

Q: What about the activity at 0.2 µM ([4]; dose 2.00 × 10^-7 Molar, read-out: Percent of Control, Uninfected) of the same compound?
A: Its activity at 0.2 µM is 91.7%.

Q: And the activity at 63.2 µM ([4]; dose 6.32 × 10^-5 Molar, read-out: Percent of Control, Uninfected)?
A: Its activity at 63.2 µM is 95.9%.

Q: What about the activity at 6.33 µM ([4]; dose 6.33 × 10^-6 Molar, read-out: Percent of Control, Uninfected) of the same compound?
A: Its activity at 6.33 µM is 94.8%.

Q: And the activity at 0.634 µM ([4]; dose 6.34 × 10^-7 Molar, read-out: Percent of Control, Uninfected)?
A: The activity at 0.634 µM was 97.1%.

Q: And the activity at 0.0635 µM ([4]; dose 6.35 × 10^-8 Molar, read-out: Percent of Control, Uninfected)?
A: Its activity at 0.0635 µM is 95.8%.

Q: And the EC50 ([5]; Human immunodeficiency virus 1, CCRF-CEM, 144 h, HIV-1 infected CEM cells, 6 days, XTT, approximate values, read-out: EC50 (50% effective concentration against HIV cytopathic effects))?
A: The EC50 was 106 µM.

Q: What about the inhibition at 200 µM ([5]; Human immunodeficiency virus 1, CCRF-CEM, dose 2.00 × 10^-4 Molar, read-out: Percent of Protection) of the same compound?
A: Its inhibition at 200 µM is 78.8%.

Q: What about the inhibition at 20 µM ([5]; Human immunodeficiency virus 1, CCRF-CEM, dose 2.00 × 10^-5 Molar, read-out: Percent of Protection) of the same compound?
A: The inhibition at 20 µM was 5.32%.

Q: What about the inhibition at 2 µM ([5]; Human immunodeficiency virus 1, CCRF-CEM, dose 2.00 × 10^-6 Molar, read-out: Percent of Protection) of the same compound?
A: Its inhibition at 2 µM is 0.36%.

Q: What about the inhibition at 0.2 µM ([5]; Human immunodeficiency virus 1, CCRF-CEM, dose 2.00 × 10^-7 Molar, read-out: Percent of Protection) of the same compound?
A: The inhibition at 0.2 µM was 1.18%.

Q: And the inhibition at 63.2 µM ([5]; Human immunodeficiency virus 1, CCRF-CEM, dose 6.32 × 10^-5 Molar, read-out: Percent of Protection)?
A: The inhibition at 63.2 µM was 27.1%.

Q: And the inhibition at 6.33 µM ([5]; Human immunodeficiency virus 1, CCRF-CEM, dose 6.33 × 10^-6 Molar, read-out: Percent of Protection)?
A: Its inhibition at 6.33 µM is 1.52%.

Q: What about the inhibition at 0.634 µM ([5]; Human immunodeficiency virus 1, CCRF-CEM, dose 6.34 × 10^-7 Molar, read-out: Percent of Protection) of the same compound?
A: Its inhibition at 0.634 µM is 1.22%.

Q: What about the inhibition at 0.0635 µM ([5]; Human immunodeficiency virus 1, CCRF-CEM, dose 6.35 × 10^-8 Molar, read-out: Percent of Protection) of the same compound?
A: Its inhibition at 0.0635 µM is 0.03%.

Q: And the activity at 200 µM ([5]; Human immunodeficiency virus 1, Lymphocyte, dose 2.00 × 10^-4 Molar, read-out: Percent of Control, Infected)?
A: The activity at 200 µM was 79.2%.

Q: What about the activity at 20 µM ([5]; Human immunodeficiency virus 1, Lymphocyte, dose 2.00 × 10^-5 Molar, read-out: Percent of Control, Infected) of the same compound?
A: Its activity at 20 µM is 7.21%.

Q: What about the activity at 2 µM ([5]; Human immunodeficiency virus 1, Lymphocyte, dose 2.00 × 10^-6 Molar, read-out: Percent of Control, Infected) of the same compound?
A: Its activity at 2 µM is 2.35%.

Q: What about the activity at 0.2 µM ([5]; Human immunodeficiency virus 1, Lymphocyte, dose 2.00 × 10^-7 Molar, read-out: Percent of Control, Infected) of the same compound?
A: Its activity at 0.2 µM is 3.16%.

Q: And the activity at 63.2 µM ([5]; Human immunodeficiency virus 1, Lymphocyte, dose 6.32 × 10^-5 Molar, read-out: Percent of Control, Infected)?
A: Its activity at 63.2 µM is 28.5%.

Q: And the activity at 6.33 µM ([5]; Human immunodeficiency virus 1, Lymphocyte, dose 6.33 × 10^-6 Molar, read-out: Percent of Control, Infected)?
A: The activity at 6.33 µM was 3.49%.

Q: And the activity at 0.634 µM ([5]; Human immunodeficiency virus 1, Lymphocyte, dose 6.34 × 10^-7 Molar, read-out: Percent of Control, Infected)?
A: Its activity at 0.634 µM is 3.2%.

Q: And the activity at 0.0635 µM ([5]; Human immunodeficiency virus 1, Lymphocyte, dose 6.35 × 10^-8 Molar, read-out: Percent of Control, Infected)?
A: The activity at 0.0635 µM was 2.03%.

Q: And the “TI50 (IC/EC), Therapeutic Index” value ([5]; IC50/EC50)?
A: Its value is > 1.88 × 10^0.
